Reference: patent US4443436A, “C-20-Modified macrolide derivatives of the macrolide antibiotics tylosin, desmycosin, macrocin, and lactenocin” (Eli Lilly and Company, priority 1982, dated 1984)
In brackets after ≈: the same amount, converted by molar mass. Where two headings read alike, the source gives them in different places.

What was measured:
[1] = tested on: Staphylococcus aureus X1.1; assay: MIC, standard agar-dilution assay, Staphylococcus aureus X1.1; assay type: cell-based; conditions: Staphylococcus aureus X1.1, agar dilution
[2] = tested on: Staphylococcus aureus V41; assay: MIC, standard agar-dilution assay, Staphylococcus aureus V41; assay type: cell-based
[3] = tested on: Staphylococcus aureus X400; assay: MIC, standard agar-dilution assay, Staphylococcus aureus X400; assay type: cell-based
[4] = tested on: Staphylococcus aureus S13E; assay: MIC, standard agar-dilution assay, Staphylococcus aureus S13E; assay type: cell-based
[5] = tested on: Staphylococcus epidermidis EPI1; assay: MIC, standard agar-dilution assay, Staphylococcus epidermidis EPI1; assay type: cell-based; conditions: Staphylococcus epidermidis EPI1, agar dilution
[6] = tested on: Staphylococcus epidermidis EPI2; assay: MIC, standard agar-dilution assay, Staphylococcus epidermidis EPI2; assay type: cell-based
[7] = tested on: Streptococcus pyogenes C203; assay: MIC, standard agar-dilution assay, Streptococcus pyogenes C203; assay type: cell-based; conditions: Streptococcus pyogenes C203, agar dilution
[8] = tested on: Streptococcus pneumoniae Park I; assay: microbe, parasite or virus in culture; assay type: cell-based; conditions: Streptococcus pneumoniae Park I, agar dilution
[9] = tested on: Streptococcus Group D X66; assay: MIC, standard agar-dilution assay, Streptococcus Group D X66; assay type: cell-based; conditions: Streptococcus Group D X66, agar dilution
Streptococcus Group 9960 = assay: MIC, standard agar-dilution assay, Streptococcus Group 9960; assay type: cell-based
[10] = tested on: Haemophilus influenzae Holt; assay: MIC, standard agar-dilution assay, Haemophilus influenzae Holt; assay type: cell-based; conditions: Haemophilus influenzae Holt, ampicillin-sensitive strain
[11] = tested on: Haemophilus influenzae R252; assay: MIC, standard agar-dilution assay, Haemophilus influenzae R252; assay type: cell-based; conditions: Haemophilus influenzae R252, ampicillin-resistant strain
Staphylococcus aureus = assay: MIC, broth-dilution microtiter test, Staphylococcus aureus; assay type: cell-based; conditions: broth-dilution microtiter
Excerpt: (§1) The MIC's in Table X were obtained using conventional broth-dilution microtiter tests.

Streptococcus bovis 80 = assay: MIC, broth-dilution microtiter test, Streptococcus bovis 80; assay type: cell-based; conditions: Streptococcus bovis 80, broth-dilution microtiter
Excerpt: as §1

[12] = tested on: Pasteurella multocida 17E; assay: MIC, broth-dilution microtiter test, Pasteurella multocida 17E; assay type: cell-based; conditions: Pasteurella multocida 17E, bovine isolate, broth-dilution microtiter
Excerpt: as §1

[13] = tested on: Pasteurella multocida 60A; assay: MIC, broth-dilution microtiter test, Pasteurella multocida 60A; assay type: cell-based; conditions: Pasteurella multocida 60A, avian isolate, broth-dilution microtiter
Excerpt: as §1

[14] = tested on: Pasteurella hemolytica 22C; assay: MIC, broth-dilution microtiter test, Pasteurella hemolytica 22C; assay type: cell-based; conditions: Pasteurella hemolytica 22C, broth-dilution microtiter
Excerpt: as §1

Mycoplasma gallisepticum = assay: MIC, broth-dilution microtiter test, Mycoplasma gallisepticum; assay type: cell-based
Excerpt: as §1

Mycoplasma synoviae = assay: MIC, broth-dilution microtiter test, Mycoplasma synoviae; assay type: cell-based; conditions: Mycoplasma synoviae; broth-dilution microtiter
Excerpt: as §1

Mycoplasma hyorhinis = assay: MIC, broth-dilution microtiter test, Mycoplasma hyorhinis; assay type: cell-based; conditions: Mycoplasma hyorhinis, broth-dilution microtiter
Excerpt: as §1

Mycoplasma hyopneumoniae = assay: MIC, broth-dilution microtiter test, Mycoplasma hyopneumoniae; assay type: cell-based; conditions: Mycoplasma hyopneumoniae; broth-dilution microtiter
Excerpt: as §1

[15] = tested on: Streptococcus pyogenes C203; assay: In vivo protection of mice experimentally infected with S. pyogenes C203; conditions: for ED50: Streptococcus pyogenes
Experimental: The C-20 modified derivatives of this invention have shown in vivo antimicrobial activity against experimentally-induced infections in laboratory animals. When two doses of test compound were administered to mice experimentally infected with S. pyogenes C203, the activity observed was measured as an ED50 value [effective dose in mg/kg to protect 50% of the test animals: see Warren Wick, et al., J. Bacteriol. 81, 233-235 (1961)].

Pasteurella multocida [16] = assay: Oral (gavage) treatment of Pasteurella multocida-infected chicks; assay type: in vivo, one-day-old chicks; conditions: 1.5 g/gal equivalent
Experimental: (§2) Many of the C-20 modified derivatives of this invention have also shown in vivo antibacterial activity against infections induced by gram-negative bacteria. Tables XII and XIII summarize the results of tests in which illustrative compounds were evaluated against Pasteurella infection in one-day-old chicks. The compounds were administered parenterally or orally after challenge of the chicks with Pasteurella multocida (0.1 ml of a 10^-4 dilution of a twenty-hour tryptose broth culture of an avian P. multocida given subcutaneously). In these tests, unless indicated otherwise, all non-medicated infected chicks died within 24 hours of Pasteurella challenge. In the tests summarized in Table XII the compounds were administered by subcutaneous injection at a dosage of 30 mg/kg, 1 and 4 hours post-challenge of the chicks with P. multocida. In the test summarized in Table XIII the compounds were administered by gavage at 1 and 5 hours post-challenge of the chicks with P. multocida.

Pasteurella multocida [17] = assay: Subcutaneous treatment of Pasteurella multocida-infected chicks; assay type: in vivo, one-day-old chicks; conditions: 30 mg/kg × 2, 1 and 4 hours post-challenge
Experimental: as §2

[18] = Staphylococcus aureus V41, penicillin-resistant strain, agar dilution
[19] = Staphylococcus aureus X400, methicillin-resistant strain, agar dilution
[20] = Staphylococcus aureus S13E, agar dilution
[21] = Staphylococcus epidermidis EPI2, agar dilution
[22] = Streptococcus Group 9960, agar dilution
[23] = Mycoplasma gallisepticum, broth-dilution microtiter
[24] = mice, doses given 1 and 4 hours post-infection
[25] = mice, subcutaneous, doses given 1 and 4 hours post-infection

## CCC1OC(=O)CC(O)C(C)C(OC2OC(C)C(O)C(N(C)C)C2O)C(CCOc2cc(Cl)cc(Cl)c2)CC(C)C(=O)C=CC(C)=CC1COC1OC(C)C(O)C(OC)C1OC (stereo not drawn) [Compound 40, 20-DH-20-O-(3,5-Dichlorophenyl)desmycosin]
[1]
  MIC: 0.25 µg/mL (≈ 0.272 µM)
[2]; [18]
  MIC: 0.25 µg/mL (≈ 0.272 µM)
[3]; [19]
  MIC: 0.25 µg/mL (≈ 0.272 µM)
[4]; [20]
  MIC: 0.25 µg/mL (≈ 0.272 µM)
[5]
  MIC: 0.25 µg/mL (≈ 0.272 µM)
[6]; [21]
  MIC: 0.12 µg/mL (≈ 0.131 µM)
[7]
  MIC: 0.12 µg/mL (≈ 0.131 µM)
[8]
  MIC: 1 µg/mL (≈ 1.09 µM)
[9]
  MIC: 4 µg/mL (≈ 4.35 µM)
Streptococcus Group 9960; [22]
  MIC: 8 µg/mL (≈ 8.71 µM)
[10]; agar dilution
  MIC: 32 µg/mL (≈ 34.8 µM)
[11]; agar dilution
  MIC: 16 µg/mL (≈ 17.4 µM)
Staphylococcus aureus
  MIC: 0.39 µg/mL (≈ 0.424 µM)
Streptococcus bovis 80
  MIC: 3.12 µg/mL (≈ 3.4 µM)
[12]
  MIC: 12.5 µg/mL (≈ 13.6 µM)
[13]
  MIC: 12.5 µg/mL (≈ 13.6 µM)
[14]
  MIC: 12.5 µg/mL (≈ 13.6 µM)
Mycoplasma gallisepticum; [23]
  MIC: < 0.05 µg/mL
Mycoplasma synoviae
  MIC: 0.19 µg/mL (≈ 0.207 µM)
Mycoplasma hyorhinis
  MIC: 12.5 µg/mL (≈ 13.6 µM)
Mycoplasma hyopneumoniae
  MIC: 12.5 µg/mL (≈ 13.6 µM)
[15]; [24]
  ED50, Oral: 31 mg/kg × 2
[15]; [25]
  ED50, Subcutaneous: > 10 mg/kg × 2
Pasteurella multocida [16]
  Number of Deaths/Number tested: 10/10

## CCC1OC(=O)CC(O)C(C)C(OC2OC(C)C(O)C(N(C)C)C2O)C(CCOC(=O)c2nn(CC)c3cc4c(cc3c2=O)OCO4)CC(C)C(=O)C=CC(C)=CC1COC1OC(C)C(O)C(OC)C1OC (stereo not drawn) [Compound 27, 20-DH-20-O-Cinoxacinyldesmycosin]
[1]; read-out: MIC
  MIC: 2 µg/mL (≈ 1.96 µM)
[2]; Staphylococcus aureus, V41
  MIC: 4 µg/mL (≈ 3.93 µM)
[3]; Staphylococcus aureus, X400
  MIC: 8 µg/mL (≈ 7.86 µM)
[4]; Staphylococcus aureus, S13E
  MIC: 4 µg/mL (≈ 3.93 µM)
[5]; read-out: MIC
  MIC: 1 µg/mL (≈ 0.982 µM)
[6]; Staphylococcus epidermidis, EPI2
  MIC: 4 µg/mL (≈ 3.93 µM)
[7]; read-out: MIC
  MIC: 0.12 µg/mL (≈ 0.118 µM)
[8]; read-out: MIC
  MIC: 0.12 µg/mL (≈ 0.118 µM)
[9]; read-out: MIC
  MIC: 4 µg/mL (≈ 3.93 µM)
Streptococcus Group 9960; GROUP9960
  MIC: 8 µg/mL (≈ 7.86 µM)
[10]; read-out: MIC
  MIC: 32 µg/mL (≈ 31.4 µM)
[11]; read-out: MIC
  MIC: 32 µg/mL (≈ 31.4 µM)
Staphylococcus aureus; read-out: MIC
  MIC: 3.12 µg/mL (≈ 3.06 µM)
Streptococcus bovis 80; Streptococcus equinus, read-out: MIC
  MIC: 0.78 µg/mL (≈ 0.766 µM)
[12]; read-out: MIC
  MIC: 25 µg/mL (≈ 24.6 µM)
[13]; read-out: MIC
  MIC: 25 µg/mL (≈ 24.6 µM)
[14]; read-out: MIC
  MIC: 50 µg/mL (≈ 49.1 µM)
Mycoplasma gallisepticum; Mycoplasmoides gallisepticum
  MIC: 1.56 µg/mL (≈ 1.53 µM)
Mycoplasma hyorhinis; read-out: MIC
  MIC: 6.25 µg/mL (≈ 6.14 µM)
[15]; C203, po, read-out: ED50, Oral
  ED50: > 100 mg/kg
[15]; C203, sc, mice, subcutaneous, doses given 1 and 4 hours post-infection, read-out: ED50, Subcutaneous
  ED50: < 1.5 mg/kg
Pasteurella multocida [17]
  Number of Deaths/Number Treated: 6/10

## CCC1OC(=O)CC(O)C(C)C(OC2OC(C)C(O)C(N(C)C)C2O)C(CCN2C(=O)c3ccccc3C2=O)CC(C)C(=O)C=CC(C)=CC1COC1OC(C)C(O)C(OC)C1OC (stereo not drawn) [Compound 43, 20-DH-DO-20-N-Phthalimidodesmycosin]
[1]
  MIC: 0.12 µg/mL (≈ 0.133 µM)
[2]; [18]
  MIC: 0.12 µg/mL (≈ 0.133 µM)
[3]; [19]
  MIC: 0.5 µg/mL (≈ 0.554 µM)
[4]; [20]
  MIC: 0.25 µg/mL (≈ 0.277 µM)
[5]
  MIC: 0.12 µg/mL (≈ 0.133 µM)
[6]; [21]
  MIC: 0.25 µg/mL (≈ 0.277 µM)
[7]
  MIC: 0.25 µg/mL (≈ 0.277 µM)
[8]
  MIC: 2 µg/mL (≈ 2.21 µM)
Streptococcus Group 9960; [22]
  MIC: 4 µg/mL (≈ 4.43 µM)
[10]; agar dilution
  MIC: 32 µg/mL (≈ 35.4 µM)
[11]; agar dilution
  MIC: 32 µg/mL (≈ 35.4 µM)
Staphylococcus aureus
  MIC: 0.78 µg/mL (≈ 0.864 µM)
Streptococcus bovis 80
  MIC: 6.25 µg/mL (≈ 6.92 µM)
[12]
  MIC: 25 µg/mL (≈ 27.7 µM)
[13]
  MIC: 12.5 µg/mL (≈ 13.8 µM)
[14]
  MIC: 25 µg/mL (≈ 27.7 µM)
Mycoplasma gallisepticum; [23]
  MIC: 0.78 µg/mL (≈ 0.864 µM)
Mycoplasma synoviae
  MIC: 0.78 µg/mL (≈ 0.864 µM)
Mycoplasma hyorhinis
  MIC: 50 µg/mL (≈ 55.4 µM)
Mycoplasma hyopneumoniae
  MIC: 12.5 µg/mL (≈ 13.8 µM)
[15]; [24]
  ED50, Oral: 16 mg/kg × 2
[15]; [25]
  ED50, Subcutaneous: 1.6 mg/kg × 2
Pasteurella multocida [17]
  Number of Deaths/Number Treated: 10/10
